Key:
Format in all cases: cell-based
[1] = test system: immune cells (T cells, B cells, macrophages, monocytes) from spleen of mice; experiment: MTT assay, cytotoxicity in immune cells separated from spleen of mice; details: mouse spleen immune cells, 24 hours, FIG. 2; read-out: IC50 (cytotoxicity)
Procedure: (§1) The effect of the composition of the present invention on the cytotoxicity in immune cells (T cells, B cells, macrophages, monocytes, etc.) was examined. The spleen was removed from normal mice (BDF) and single cells were obtained from the spleen by mechanical aggregation method. And mononuclear cells containing T cells, B cells, macrophages and monocytes were isolated from single cells by density gradient centrifugation method using Ficoll Hypaque. Briefly, single cells were treated with PBS and overlayed on Ficoll Hypaque and centrifuged at 1500 rpm for 30 min. After centrifugation, the cells around the boundary of the Ficoll-Hapaque were collected and washed three times with PBS. The isolated cells were cultured for 24 hours in the presence of 1, 10, 50 and 100 μM of NAPS, TAPS, and PS to examine the effect of cytotoxicity, i.e. the degree of proliferation of the cells. C2-ceramide was used as control. The medium used in this experiment was RPMI 1640 suplemented with 10% of FBS and 100 μg/ml of penicillin and streptomycin.

[2] = MTT assay, cytotoxicity in human keratinocyte cell line; details: human, Cell viability
How it was run: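 HaCaT keratinocytes, 1-2×10^4 cells per well in serum-free medium, treated 24 h with phytosphingosine derivatives (1-100 μM, DMSO vehicle). Viability by MTT (2 mg/ml, 4 h), formazan dissolved in DMSO, O.D. read at 540 nm.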

[3] = MTT assay, cytotoxicity in human skin cancer cell line; details: human, Cell viability
How it was run: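 A431 cells were seeded in serum-free medium and, about 3 h later, treated 24 h with phytosphingosine derivatives at final 1–100 μM (DMSO vehicle). MTT (2 mg/ml) was then added for 4 h, and the formazan was dissolved in DMSO and read at 540 nm for viability. C2-ceramide served as comparator.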

[4] = MTT assay, cytotoxicity in immune cells separated from spleen of mice; details: BDF, mouse
Procedure: as §1

| Molecule | IC50 [1] [µM] | viability at 24 h, 1 µM [2] [%] | viability at 24 h, 3 µM [2] [%] | viability at 24 h, 10 µM [2] [%] | viability at 24 h, 30 µM [2] [%] | viability at 24 h, 3 µM [3] [%] | viability at 24 h, 10 µM [3] [%] | viability at 24 h, 30 µM [3] [%] | viability at 24 h, 50 µM [3] [%] | IC50 at 24 h [4] [µM] |
| --- | --- | --- | --- | --- | --- | --- | --- | --- | --- | --- |
| tetraacetyl phytosphingosine [TAPS] | 100 |  |  |  |  |  |  |  |  |  |
| CCCCCCCCCCCCCC[C@@H](O)[C@@H](O)[C@H](CO)NC(C)=O [NAPS, N-acetyl phytosphingosine] |  | 103 ± 6.9 | 99 ± 3.5 | 86 ± 2.1 | 17 ± 0.8 | 100 ± 10.2 | 75 ± 6.9 | 31 ± 10 | 1 ± 0.2 | ~75 |

From patent publication US20060166934A1, “Composition comprising phytosphingosine derivatives for apoptosis induction” (Tae-Yoon Kim, priority 2002, published 2006)
